Test results reported in article PMC6407917, “Identification of GSK3186899/DDD853651 as a Preclinical Development Candidate for the Treatment of Visceral Leishmaniasis” (Journal of Medicinal Chemistry, 2018).

Legend:
Assay in all cases: biochemical
Set-up in all cases: species or system HEK293/K-562/placenta mixed human extract; Kinobeads chemoproteomic competition binding, quantified by TMT LC-MS/MS, dose response up to 20 uM
PRKCB = PRKCB (Homo sapiens, UniProt P05771)
STK39 = STK39 (Homo sapiens, UniProt Q9UEW8)
MARK2 = MARK2 (Homo sapiens, UniProt Q7KZI7)
EIF2AK4 = EIF2AK4 (Homo sapiens, UniProt Q9P2K8)
MERTK = MERTK (Homo sapiens, UniProt Q12866)
STK38 = STK38 (Homo sapiens, UniProt Q15208)
MAP3K1 = MAP3K1 (Homo sapiens, UniProt Q13233)
MET = MET (Homo sapiens, UniProt P08581)
YES1 = YES1 (Homo sapiens, UniProt P07947)
BMX = BMX (Homo sapiens, UniProt P51813)
EIF2AK1 = EIF2AK1 (Homo sapiens, UniProt Q9BQI3)
HIPK1 = HIPK1 (Homo sapiens, UniProt Q86Z02)
CSNK1E = CSNK1E (Homo sapiens, UniProt P49674)
PIP4K2A = PIP4K2A (Homo sapiens, UniProt P48426)
CLK1 = CLK1 (Homo sapiens, UniProt P49759)
CDK10 = CDK10 (Homo sapiens, UniProt Q15131)
MAP3K9 = MAP3K9 (Homo sapiens, UniProt P80192)
FN3K = FN3K (Homo sapiens, UniProt Q9H479)
MAPK3 = MAPK3 (Homo sapiens, UniProt P27361)
RPS6KA3 = RPS6KA3 (Homo sapiens, UniProt P51812)
MAP2K6 = MAP2K6 (Homo sapiens, UniProt P52564)

Measured: IC50

MAPK3, sequence (P27361 whole entry): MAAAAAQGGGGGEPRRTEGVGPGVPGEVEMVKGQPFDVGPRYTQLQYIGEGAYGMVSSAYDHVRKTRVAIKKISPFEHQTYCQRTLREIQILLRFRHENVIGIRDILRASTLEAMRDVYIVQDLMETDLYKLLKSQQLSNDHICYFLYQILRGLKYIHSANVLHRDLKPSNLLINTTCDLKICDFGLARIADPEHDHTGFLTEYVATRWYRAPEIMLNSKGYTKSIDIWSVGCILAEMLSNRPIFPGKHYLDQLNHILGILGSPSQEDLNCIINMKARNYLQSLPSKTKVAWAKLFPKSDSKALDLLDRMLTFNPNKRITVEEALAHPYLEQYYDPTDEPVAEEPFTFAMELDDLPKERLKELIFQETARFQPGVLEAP
MAP2K6, sequence (P52564 whole entry): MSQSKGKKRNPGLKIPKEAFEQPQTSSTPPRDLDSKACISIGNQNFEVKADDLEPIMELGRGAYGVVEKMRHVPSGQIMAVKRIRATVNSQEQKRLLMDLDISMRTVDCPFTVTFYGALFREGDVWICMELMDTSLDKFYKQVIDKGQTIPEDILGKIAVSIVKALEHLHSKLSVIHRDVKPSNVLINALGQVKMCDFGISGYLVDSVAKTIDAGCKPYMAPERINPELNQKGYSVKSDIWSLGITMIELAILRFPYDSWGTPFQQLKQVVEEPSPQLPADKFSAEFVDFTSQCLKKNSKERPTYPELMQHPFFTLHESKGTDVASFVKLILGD
PRKCB, sequence (P05771 whole entry): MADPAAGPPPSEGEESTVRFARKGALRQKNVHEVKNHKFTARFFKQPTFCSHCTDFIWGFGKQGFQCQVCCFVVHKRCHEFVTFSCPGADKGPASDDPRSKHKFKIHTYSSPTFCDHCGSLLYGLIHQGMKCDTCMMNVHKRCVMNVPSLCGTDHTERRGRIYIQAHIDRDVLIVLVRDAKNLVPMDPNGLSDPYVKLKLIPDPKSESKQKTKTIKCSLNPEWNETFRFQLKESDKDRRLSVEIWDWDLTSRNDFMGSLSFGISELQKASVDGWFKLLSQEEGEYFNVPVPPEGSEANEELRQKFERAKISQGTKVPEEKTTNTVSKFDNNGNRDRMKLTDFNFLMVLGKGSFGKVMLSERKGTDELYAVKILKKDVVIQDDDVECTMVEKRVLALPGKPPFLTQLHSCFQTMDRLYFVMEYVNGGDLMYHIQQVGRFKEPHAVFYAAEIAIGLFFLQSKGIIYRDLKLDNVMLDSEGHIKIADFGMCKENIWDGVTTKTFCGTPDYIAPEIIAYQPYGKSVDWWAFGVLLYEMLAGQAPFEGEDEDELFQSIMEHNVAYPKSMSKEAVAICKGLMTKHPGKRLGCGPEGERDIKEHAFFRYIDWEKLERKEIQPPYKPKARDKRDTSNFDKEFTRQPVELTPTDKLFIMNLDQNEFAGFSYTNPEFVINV
PIP4K2A, sequence (P48426 whole entry): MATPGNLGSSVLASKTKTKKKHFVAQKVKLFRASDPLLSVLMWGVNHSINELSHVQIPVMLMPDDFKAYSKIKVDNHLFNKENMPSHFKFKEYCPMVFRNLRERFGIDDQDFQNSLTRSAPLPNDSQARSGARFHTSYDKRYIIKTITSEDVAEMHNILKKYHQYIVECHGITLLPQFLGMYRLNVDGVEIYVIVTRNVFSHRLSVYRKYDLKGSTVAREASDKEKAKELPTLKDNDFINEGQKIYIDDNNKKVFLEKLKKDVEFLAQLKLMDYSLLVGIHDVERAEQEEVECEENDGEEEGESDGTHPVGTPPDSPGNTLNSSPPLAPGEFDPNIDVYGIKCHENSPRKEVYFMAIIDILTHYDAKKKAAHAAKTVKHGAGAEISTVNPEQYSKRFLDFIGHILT
MARK2, sequence (Q7KZI7 whole entry): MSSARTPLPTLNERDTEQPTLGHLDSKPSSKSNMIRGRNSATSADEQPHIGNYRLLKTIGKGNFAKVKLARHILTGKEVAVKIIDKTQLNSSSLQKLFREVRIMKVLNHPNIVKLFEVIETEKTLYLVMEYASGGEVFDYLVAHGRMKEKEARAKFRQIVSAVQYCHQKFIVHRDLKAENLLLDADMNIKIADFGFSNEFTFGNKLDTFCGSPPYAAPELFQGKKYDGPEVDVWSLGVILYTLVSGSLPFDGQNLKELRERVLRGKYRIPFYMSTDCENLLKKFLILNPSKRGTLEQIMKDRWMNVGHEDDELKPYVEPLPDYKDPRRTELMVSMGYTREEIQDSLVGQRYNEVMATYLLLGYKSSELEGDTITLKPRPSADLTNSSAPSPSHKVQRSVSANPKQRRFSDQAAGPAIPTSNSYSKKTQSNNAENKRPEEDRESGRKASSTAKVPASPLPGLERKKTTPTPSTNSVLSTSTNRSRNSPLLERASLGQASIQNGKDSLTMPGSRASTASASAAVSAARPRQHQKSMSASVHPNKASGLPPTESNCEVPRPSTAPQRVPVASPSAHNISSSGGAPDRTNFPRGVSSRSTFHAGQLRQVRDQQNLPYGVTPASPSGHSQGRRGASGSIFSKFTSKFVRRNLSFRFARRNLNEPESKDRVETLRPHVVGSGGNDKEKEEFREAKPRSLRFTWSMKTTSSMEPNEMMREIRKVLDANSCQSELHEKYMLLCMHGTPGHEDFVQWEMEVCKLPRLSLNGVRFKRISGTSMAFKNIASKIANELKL
MET, sequence (P08581 whole entry): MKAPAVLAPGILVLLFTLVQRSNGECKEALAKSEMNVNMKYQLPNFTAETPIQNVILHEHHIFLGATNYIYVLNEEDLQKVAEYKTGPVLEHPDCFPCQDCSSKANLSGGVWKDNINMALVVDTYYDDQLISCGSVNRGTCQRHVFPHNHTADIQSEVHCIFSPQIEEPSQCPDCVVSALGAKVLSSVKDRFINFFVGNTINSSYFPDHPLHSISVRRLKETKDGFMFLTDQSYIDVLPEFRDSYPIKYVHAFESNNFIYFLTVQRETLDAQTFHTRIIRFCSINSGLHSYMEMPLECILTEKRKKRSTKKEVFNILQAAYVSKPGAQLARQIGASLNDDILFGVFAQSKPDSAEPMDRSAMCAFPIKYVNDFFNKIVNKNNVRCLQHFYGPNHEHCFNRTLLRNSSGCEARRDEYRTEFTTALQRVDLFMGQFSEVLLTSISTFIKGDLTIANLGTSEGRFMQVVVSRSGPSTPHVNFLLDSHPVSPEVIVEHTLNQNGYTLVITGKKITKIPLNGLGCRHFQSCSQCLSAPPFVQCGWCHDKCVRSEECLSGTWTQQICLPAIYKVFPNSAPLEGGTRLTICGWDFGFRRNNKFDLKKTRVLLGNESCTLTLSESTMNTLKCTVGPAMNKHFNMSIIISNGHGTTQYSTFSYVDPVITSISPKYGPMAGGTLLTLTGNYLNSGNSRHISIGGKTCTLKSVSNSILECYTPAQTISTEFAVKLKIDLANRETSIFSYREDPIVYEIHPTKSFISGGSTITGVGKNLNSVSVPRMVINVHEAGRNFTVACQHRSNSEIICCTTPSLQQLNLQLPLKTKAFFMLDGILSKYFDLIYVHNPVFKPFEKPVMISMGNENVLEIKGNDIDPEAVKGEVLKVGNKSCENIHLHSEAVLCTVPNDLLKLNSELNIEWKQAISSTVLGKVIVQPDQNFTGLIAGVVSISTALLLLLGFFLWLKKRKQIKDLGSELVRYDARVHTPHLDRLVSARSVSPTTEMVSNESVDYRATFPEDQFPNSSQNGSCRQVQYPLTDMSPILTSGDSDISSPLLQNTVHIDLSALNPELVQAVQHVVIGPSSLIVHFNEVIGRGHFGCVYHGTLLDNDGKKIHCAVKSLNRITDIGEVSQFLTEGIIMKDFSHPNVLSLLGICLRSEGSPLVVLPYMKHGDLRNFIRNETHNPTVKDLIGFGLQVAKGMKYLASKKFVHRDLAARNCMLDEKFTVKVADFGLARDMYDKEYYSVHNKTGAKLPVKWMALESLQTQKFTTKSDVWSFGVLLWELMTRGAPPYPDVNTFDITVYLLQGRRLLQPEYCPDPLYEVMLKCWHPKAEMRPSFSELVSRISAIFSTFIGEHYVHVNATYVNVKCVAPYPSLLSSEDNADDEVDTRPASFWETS
FN3K, sequence (Q9H479 whole entry): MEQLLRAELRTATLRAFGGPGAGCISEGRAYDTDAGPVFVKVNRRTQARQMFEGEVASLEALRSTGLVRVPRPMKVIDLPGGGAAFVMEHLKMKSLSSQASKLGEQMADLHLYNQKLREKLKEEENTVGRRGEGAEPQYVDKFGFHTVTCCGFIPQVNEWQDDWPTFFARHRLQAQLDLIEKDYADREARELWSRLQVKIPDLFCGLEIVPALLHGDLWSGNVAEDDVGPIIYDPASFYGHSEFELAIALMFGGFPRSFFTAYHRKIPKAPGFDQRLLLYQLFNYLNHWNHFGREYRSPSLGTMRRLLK
CDK10, sequence (Q15131 whole entry): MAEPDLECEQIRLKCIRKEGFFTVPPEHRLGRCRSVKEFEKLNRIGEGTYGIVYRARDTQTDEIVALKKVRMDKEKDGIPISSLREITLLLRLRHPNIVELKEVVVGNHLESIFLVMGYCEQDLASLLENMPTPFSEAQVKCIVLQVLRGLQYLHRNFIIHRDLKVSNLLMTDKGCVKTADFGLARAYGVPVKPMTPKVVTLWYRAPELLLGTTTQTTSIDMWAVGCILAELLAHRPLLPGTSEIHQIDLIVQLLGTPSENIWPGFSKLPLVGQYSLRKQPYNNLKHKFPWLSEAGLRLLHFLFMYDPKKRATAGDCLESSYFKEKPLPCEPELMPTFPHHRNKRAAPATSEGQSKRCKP

COc1nc(N[C@H]2CC[C@H](NS(=O)(=O)CC(C)C)CC2)nc2[nH]nc(N3CCOC[C@H]3C)c12 [compound 39, N-(trans-4-((4-Methoxy-3-((R)-3-methylmorpholino)-1H-pyrazolo[3,4-d]pyrimidin-6-yl)amino)cyclohexyl)-2-methylpropane-1-sulfonamide]
≥ 20 µM: all assays above
